{"source": "patent US9463174B2", "about": "“Pharmaceutical composition for the treatment of type-1 diabetes” (priority 2008, dated 2016)", "key": {"[1]": {"tested_on": "MLDS CD1 mice", "experiment": "Prevention of multiple-low-dose-streptozotocin (MLDS) induced diabetes by daily GABA injection", "format": "in vivo", "experimental": "As shown in the FIG. 1, the diabetes induction by multiple-low-dose-streptozotocin (i.p. 40 mg/kg for four consecutive days, MLDS) in mice can be prevented by daily injection of GABA. The MLSD murine model is commonly used for study of T1D (Rossini A A et al, 1978 Nature. 276(5684):182-4; Harlan D M et al, 1995 Diabetes 44(7):816-23) in which the beta-cells are destroyed by the toxic streptozotocin that leads to insulin insufficiency. To certain extent, T-cell mediated beta-cell inflammation (insulitis) is found in the multiple-low-dose streptozotocin induced diabetic hyperglycemia. However, insulitis may not be necessary occurred in the hyperglycemic mice induced by one injection of streptozotocin of high dose (i.e. 200-250 mg/kg), as in the latter case the beta-cell are rapidly destroyed. […] GABA has no effect on the glucose tolerance in normal mice as determined by intraperitoneal glucose tolerance test (IPGTT) 7 days before STZ injection.\n(§1) The techniques used for the in vivo and in vitro studies in this embodiment of the disclosure are also described. CD1 mice (Charles River Laboratories, St Constant, Canada), NOD mice and transgenic TCR NOD mice (Jackson Laboratory, USA) were housed under a controlled temperature and a 12-h light/12-h dark cycle in the St. Michael's Hospital Animal facility with free access to food (normal rodent chow) and water, except where noted. All procedures were conducted according to protocols and guidelines approved by the Canadian Council of Animal Care and the St. Michael's Hospital Animal Care committee. Mice were treated with GABA by daily intraperitoneal (i.p.) injection of 20·g GABA per mouse to reach ˜200 μM circulation concentration and PBS as control. The daily treatment is continuously conducted during 60-day experimental period. One wk after the GABA and PBS treatment, diabetes was induced in both groups by i.p.-injection of low-dose streptozotocin (STZ, Sigma Chemical Co., St. Louis, Mo. 40 mg/kg body weight) for 5 consecutive days. The development of hyperglycemia was monitored by measuring blood glucose from the tail vein every third day following STZ injections using an Ascensia ELITE® XL glucose meter. For some studies, overtly diabetic mice induced by STZ and without GABA treatment were divided into two groups: one group started receiving daily i.p. injection of 20·g GABA whereas other group received only PBS. The treatment was continued for 75 days. The handling of the NOD mice were similar to those CD1 mice except the STZ injection. The NOD mice have a susceptibility to spontaneous development of autoimmune T1D. The TCR transgenic 8.3-NOD mice have a markedly accelerated disease (J. Vergdaguer et al, 1997 J Exp Med. 186(10):1663-76).\n(§2) Groups of mice were subject to a glucose tolerance test (IPGTT) before treatment (day 0), one, three, and five weeks after administration and the day prior termination. For IPGTT, mice were fasted overnight for 15 h, and were given 1.5 g glucose/kg body weight via i.p.-injection. Blood was drawn from the tail vein and blood glucose was measured at 0, 10, 20, 30, 60, 90, and 120 min after glucose administration.\nInsulin tolerance test (ITT) was performed in non-fasting mice by i.p.-injection of 2.5 unit insulin/kg body weight. Blood was drawn from the tail vein and blood glucose levels were measured at 0, 20, 30, 40, 60, 90, and 120 min after insulin administration. Glucagon tolerance test (GTT) was performed in 15 hrs fasted mice: glucagon were i.p.-injected (50 ng/g body weight) and blood was drawn from the tail vein and blood glucose levels were measured at 0, 10, 20, 30, 60, 90, and 120 min after glucagon administration.\nMice were housed in metabolic cages prior to initiation of GABA and PBS treatment and before termination of experiments. Food intake, water consumption and urine output were measured. To determine the fat distribution, three intra-abdominal fat pads retroperitoneal, mesenteric and epididymal were dissected and weighed. […]"}, "[2]": {"tested_on": "NOD mice", "experiment": "Prevention of diabetes in non-obese diabetic (NOD) mice, GABA daily injections from age of 5 week", "format": "in vivo", "experimental": "To examine the role of GABA in the development of diabetes in NOD mice, GABA daily injections were started at age of 5 week and PBS injections as control. Islet immunohistochemistry was performed at their age of 13 wks before the onset of obvious diabetic hyperglucemia. […] It is noted that beyond this age, the blood glucose levels of saline-treated NOD mice were out of the scale of the measurement (red arrows FIG. 6F). These non-treated NOD mice also developed impaired glucose tolerance (FIG. 6F, 6G), associated with reduced circulating C-peptide (FIG. 6H) and elevated circulating glucagon levels (FIG. 6I).\nas §1, §2\nBlood samples (200 μL) were collected from the saphenous vein at time as indicated and at the termination of experiments via cardiac puncture (1 mL) for measurement of insulin, glucagon, and cytokine profiles. Serum was collected by centrifugation and stored at −80° C. until use. Insulin and glucagon concentration in serum samples were determined using insulin ELISA kit (Crystal Chem., Chicago, Ill., USA) and glucagon RIA kit (Linco Research, St. Louis, Miss., USA). Circulating GLP-1 levels were determined using GLP-1 RIA kit (Linco Research, St. Louis, Miss., USA). Cytokine concentration in the serum samples was determined using kit Multiplex Bead-based Cytokine assay (BioRed, Canada).\nFollowing dewaxing, […] as described previously (Wang Q, Brubaker P L 2002 Diabetologia 45:1263-1273), endogenous peroxidase activity was quenched by incubating sections in 0.3% H2O2 in water for 30 min and antigen retrieval was performed by heating slides in 10 mM sodium citrate buffer, pH 6.0, at ˜70° C. for 30 min. […]"}, "[3]": {"settings": "GABA treated vs non-treated MLDS-mice"}, "[4]": {"settings": "GABA treated vs untreated MLDS-mice"}, "[5]": {"settings": "GABA vs non-GABA treated MLDS-mice"}, "[6]": {"settings": "pancreatic immunohistochemistry, vs non-treated MLDS-mice"}, "[7]": {"settings": "age of 13 wks, GABA-treated NOD mice"}}, "note": "“Also recorded” adds a separate entry of the source."}
{"smiles": "NCCCC(=O)O", "note": "[GABA, gamma-aminobutyric acid]", "values": [{"measurement": "glucose tolerance in normal mice (IPGTT)", "setting": "[1]; 7 days before STZ injection", "value": "no effect"}, {"measurement": "glucose tolerance (IPGTT)", "setting": "[1]; [3]", "value": "significant improved glucose tolerance; also recorded: maintained close to normal glucose tolerance"}, {"measurement": "glucose tolerance, area under curve", "setting": "[1]; [3]", "value": "significantly improved"}, {"measurement": "circulating insulin", "setting": "[1]; [4]", "value": "significantly elevated circulating insulin levels"}, {"measurement": "ratio of insulin to glucagon levels", "setting": "[1]; [4]", "value": "increased ratio of insulin to glucagon levels; also recorded: significantly increased insulin/glucagon ratio"}, {"measurement": "serum glucagon levels", "setting": "[1]; [4]", "value": "reduced serum glucagon levels; also recorded: significantly reduced glucagon levels"}, {"measurement": "circulating IL-12", "setting": "[1]; [5]", "value": "significantly reduced"}, {"measurement": "circulating INF-gamma", "setting": "[1]; [5]", "value": "significantly reduced"}, {"measurement": "circulating level of TNF-alpha", "setting": "[1]; [5]", "value": "significantly decreased"}, {"measurement": "circulating level of pro-inflammatory IL-1 (IL-1-beta)", "setting": "[1]; [5]", "value": "significantly decreased"}, {"measurement": "serum level of IL-6", "setting": "[1]; [5]", "value": "not different"}, {"measurement": "serum level of Th2 cytokine IL-10", "setting": "[1]; [5]", "value": "not different"}, {"measurement": "diabetic symptoms such as polydipsia and polyuria", "setting": "[1]; MLDS mice, metabolic studies", "value": "significantly improved diabetic symptoms"}, {"measurement": "diabetic sickness", "setting": "[1]; MLDS mice, throughout the feeding course", "value": "not found in any mouse"}, {"measurement": "glucagon tolerance (glucagon tolerance test)", "setting": "[1]; MLDS-mice", "value": "significantly improved glucagon tolerance; also recorded: largely improved"}, {"measurement": "improvement of glucagon intolerance, area under curve", "setting": "[1]; MLDS-mice", "value": "statistically significant"}, {"measurement": "insulin sensitivity (insulin tolerance test)", "setting": "[1]; MLDS-mice", "value": "does not alter the insulin sensitivity; also recorded: did not alter the insulin sensitivity"}, {"measurement": "insulitis scored by HE staining for infiltrated lymphocytes in the islets", "setting": "[1]; MLDS-mice", "value": "significant reduction of insulitis"}, {"measurement": "number of GABA treated STZ mice that developed overt hyperglycemia", "setting": "[1]; after 7-day MLDS injection, control mice 8 of total 8", "value": "one"}, {"measurement": "development of diabetic hyperglycemia (blood glucose)", "setting": "[1]; daily i.p. GABA 20·g/mouse, MLDS CD1 mice, vs untreated", "value": "prevents development of diabetic hyperglycemia; also recorded: remarkably prevented development of hyperglycemia"}, {"measurement": "alpha-cell mass", "setting": "[1]; [6]", "value": "significantly reduced alpha-cell mass"}, {"measurement": "beta-cell mass", "setting": "[1]; [6]", "value": "significantly reserved the beta-cell mass"}, {"measurement": "beta-cell apoptosis (anti-caspase-3 islet histochemistry)", "setting": "[2]; GABA-treated NOD mice", "value": "reduced"}, {"measurement": "circulating C-peptide", "setting": "[2]; GABA-treated NOD mice", "value": "close to those measured at their earlier age; also recorded: significantly increased circulating C-peptide"}, {"measurement": "circulating glucagon levels", "setting": "[2]; GABA-treated NOD mice", "value": "close to those measured at their earlier age; also recorded: reduced glucagon levels"}, {"measurement": "glucose tolerance", "setting": "[2]; GABA-treated NOD mice", "value": "close to normal glucose tolerance"}, {"measurement": "ratio of insulin to glucagon", "setting": "[2]; GABA-treated NOD mice", "value": "significantly elevated the ratio of insulin to glucagon"}, {"measurement": "onset of diabetes / development of severe diabetic hyperglycemia", "setting": "[2]; NOD mice", "value": "significantly prevented development of severe diabetic hyperglycemia; also recorded: prevents onset of diabetes"}, {"measurement": "severe insulitis", "setting": "[2]; age of 13 wks", "value": "no severe insulitis was seen"}, {"measurement": "islets areas occupied by lymphocytes in islets with relatively severe insulitis", "setting": "[2]; [7]", "value": "20-30%"}, {"measurement": "islets with normal morphology without lymphocyte infiltration", "setting": "[2]; [7]", "value": "> 70", "unit": "%"}, {"measurement": "islets with relatively severe insulitis", "setting": "[2]; [7]", "value": "about 15%"}, {"measurement": "blood glucose levels", "setting": "[2]; at 18 wks of age, vs saline-treated NOD mice", "value": "kept lower blood glucose levels"}]}
